Values joined by “and” are separate entries in the source; they are usually repeats but may differ in a detail not shown here. Equal values may be shown once.

Series [1] has as its system diet induced obese (DIO) mice. Put plainly: Diet induced obese (DIO) mouse model of obesity. In kind it is in vivo. As to conditions: 0.01, 0.1, 1 mg/Kg sc, 10 days, compared to DOM7h-14 control. The protocol:
This may be predictive for humans. Male C57B1/6 mice (purchased from Taconic) were fattened on 60% kcal high fat irradiated diet for 12 wks and then transferred to the in-house facility. Upon arrival, the mice were individually housed on alpha-dri bedding in a temperature and humidity controlled room (70-72° F., Humidity=48-50%, 5 AM/5 PM light cycle). The diet was changed to 45% high fat diet and the animals acclimated for 18 days. Prior to administration of test compound, mice were injected subcutaneously with saline once daily for three days and food consumption monitored. Mice were blocked and grouped such that body weight and food consumption were not different between or within groups.
Daily food consumption and body weight were measured daily for 10 days. […] It was therefore concluded that the data from this mouse study supports the hypothesis that DAT0115 would be a good clinical candidate.

Series [2] concerns the target HSA (Homo sapiens, UniProt P02768). In kind it is binding. How it is done:
(§1) The analysis was performed using a streptavidin chip (SA) coated with biotinylated serum albumin. 200-1000 resonance units (RUs) of each serum albumin was immobilised on the chip. Flow cell 1 was uncoated, flow cell 2 was coated with HSA, flow cell 3 was coated with RSA and flow cell 4 was coated with CSA. A range of concentrations of fusion was prepared (in the range 15.6 nM to 2 μM by dilution into BIACORE HBS-EP buffer (0.01M HEPES, pH7.4, 0.15M NaCl, 3 mM EDTA, 0.005% surfactant P20) and flowed across the BIACORE chip.
(§2) Affinity (KD) was calculated from the BIACORE traces by fitting on-rate and off-rate curves to traces generated by concentrations of dAb in the region of the KD.

Series [3] concerns cynomolgus monkey. As to the kind of experiment: PD in cynomolgus monkey: biscuit consumption. Format: in vivo, cynomolgus monkey (Macaca fascicularis). The source says: Protein was extensively QCed (including SDS-PAGE, mass spec, activity assay:GLP-1R-BA, pH check, osmolarity check), filter sterilised and endotoxin removed. Protein with confimed low endotoxin (<0.05 EU/mg protein) was then used for the in vivo study. Six female cynomolgus monkeys (Macaca fascicularis; Charles River Laboratories BRF, Houston, Tex., Primate Products, Miami, Fla. and/or Covance Research Products, Inc., Alice, Tex.) were used in this study. The monkeys were approximately 2 to 9 years old (with a body weight range of approximately 2 to 5 kilograms) at initiation of dosing. The monkeys were housed individually in stainless-steel cages in an environmentally controlled room(s) (64 F to 84 F; 30 to 70% relative humidity) with a 12-hour light/dark cycle. The female monkeys were offered approximately 6 biscuits twice daily of Monkey Diet #5038 (PMI Nutrition International, Richmond, Ind.) and a daily allotment of fresh fruit. […] Dose was at 0.1 mg/Kg. On the days of dosing, the first feeding occurred within approximately 1 hour post dose for each monkey (extended up to 2.5 hours post dose if study-related procedures required animals to be out of their local housing for an extended period of time). The second feeding was no sooner then two hours following the first feeding. For the purpose of environmental enrichment, additional fruit, legume and/or vegetable (e.g., grapes, baby carrots, peanuts) was provided to each monkey at or around the time of viability check or as a method of reward after acclimation or study-related procedures. Filtered tap water (supplied by Aqua Pennsylvania, Inc. and periodically analyzed) was available ad libitum. Plasma samples (approx 2 ml) were collected from the femoral vessel at predose (0 hour) and nominally at 5 minutes (iv group only), 0.5, 4, 8, 24, 48, 96, 144, 192, 288, 336, 504 and 672 hours after dosing. (PK samples from one of the animals in the iv dose group were only collected to 24 h so this animal has been excluded from the PK fitting). Analysis of samples was by mass spectrometry, and fitting of the data was using WinNonLin fitting software. PK parameters were as follows for iv administration (n=2): T1/2 67 h, MRT 46 h, Vz 327 ml/Kg and Cl 3.3 ml/hr/Kg; and for sc administration (n=3): T1/2 68 h, MRT 98 h, Vz 306 ml/Kg and Cl 3.1 ml/hr/Kg. Bioavailability was calculated as 99%. A PK study was conducted in cynomolgus monkey as described above. The principal aim of this study was to determine the pharmacokinetic parameters for DAT0115 in cynomolgus monkey (as described in the previous example), but a secondary aim was to obtain an indication of the efficacy of the DAT0115 compound in the monkeys (without sufficient power in the study for statistical significance). To achieve this secondary aim, biscuit consumption by the monkeys was monitored during the course of the study.

The target of series [4] is CSA (Macaca fascicularis, UniProt A2V9Z4). As to the kind of experiment: Surface plasmon resonance (Biacore, streptavidin chip with biotinylated serum albumin), CSA. In kind it is binding, cynomolgus monkey. As to conditions: Biacore SA chip, HBS-EP buffer; read-out: Affinity (KD) to CSA. The protocol: as §1, §2
Chain of CSA (A2V9Z4 25-608): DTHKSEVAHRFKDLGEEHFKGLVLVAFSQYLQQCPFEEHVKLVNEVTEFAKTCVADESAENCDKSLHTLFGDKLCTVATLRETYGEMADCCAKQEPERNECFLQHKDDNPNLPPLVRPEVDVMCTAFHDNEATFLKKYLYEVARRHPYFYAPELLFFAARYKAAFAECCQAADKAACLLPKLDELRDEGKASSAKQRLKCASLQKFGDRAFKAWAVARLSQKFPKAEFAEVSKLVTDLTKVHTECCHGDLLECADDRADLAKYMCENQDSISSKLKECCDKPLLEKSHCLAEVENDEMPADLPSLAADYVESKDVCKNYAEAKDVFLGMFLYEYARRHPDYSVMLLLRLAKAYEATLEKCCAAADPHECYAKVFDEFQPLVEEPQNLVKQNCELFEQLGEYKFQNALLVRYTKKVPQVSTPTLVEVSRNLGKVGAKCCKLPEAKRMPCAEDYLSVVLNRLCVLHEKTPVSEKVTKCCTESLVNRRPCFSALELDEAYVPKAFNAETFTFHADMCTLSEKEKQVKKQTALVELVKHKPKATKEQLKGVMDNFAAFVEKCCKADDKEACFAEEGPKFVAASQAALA
The target in series [5] is RSA (Rattus norvegicus, UniProt P02770). As to the kind of experiment: Surface plasmon resonance (Biacore, streptavidin chip with biotinylated serum albumin), RSA. Format: binding. As to conditions: Biacore SA chip, HBS-EP buffer; read-out: Affinity (KD) to RSA. How it is done: as §1, §2
Chain of RSA (P02770 25-608): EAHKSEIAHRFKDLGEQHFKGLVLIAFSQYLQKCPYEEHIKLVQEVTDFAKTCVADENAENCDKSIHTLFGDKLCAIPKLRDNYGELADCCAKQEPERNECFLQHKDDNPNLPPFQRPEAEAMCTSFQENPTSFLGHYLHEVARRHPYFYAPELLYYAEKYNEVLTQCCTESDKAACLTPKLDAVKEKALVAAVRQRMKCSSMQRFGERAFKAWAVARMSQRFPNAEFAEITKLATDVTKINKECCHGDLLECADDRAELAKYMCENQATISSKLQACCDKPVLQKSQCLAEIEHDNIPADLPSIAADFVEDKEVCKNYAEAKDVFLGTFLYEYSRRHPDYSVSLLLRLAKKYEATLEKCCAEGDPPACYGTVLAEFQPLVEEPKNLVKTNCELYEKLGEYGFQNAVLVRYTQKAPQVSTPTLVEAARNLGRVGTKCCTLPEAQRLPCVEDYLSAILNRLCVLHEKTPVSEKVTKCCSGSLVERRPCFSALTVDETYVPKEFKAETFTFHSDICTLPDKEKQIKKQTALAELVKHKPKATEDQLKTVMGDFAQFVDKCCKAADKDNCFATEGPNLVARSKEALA

For the substance “Exendin 4 (G4S linker)3 DOM7h-14 dAb fusion [DAT0115]”, the body weight entry in series [1] is “dose dependent reduction”. The food consumption result in series [1] is listed as “dose dependent reduction”. Besides, the equilibrium dissociation constant (Kd) in series [2] was 600 nM; in series [4], 2000 nM; in series [5], 2000 nM. Further, the Biscuits consumed daily in series [3] (0.1 mg/Kg (iv), Day 1 (dosing day), individual monkey) is 0 (2×) and 6; in series [3] (0.1 mg/Kg (iv), Day 2, individual monkey), 0 and 3 and 1; in series [3] (0.1 mg/Kg (iv), Day 3, individual monkey) it was 0 (2×) and 9; in series [3] (0.1 mg/Kg (iv), Day 4, individual monkey) it was 0 and 12 and 4; in series [3] (0.1 mg/Kg (iv), Day 5, individual monkey) it was 1 and 12 and 6; in series [3] (0.1 mg/Kg (iv), Day 6, individual monkey), 6 and 12 and 10. Further, the Biscuits consumed daily in series [3] (0.1 mg/Kg (iv), Day 7, individual monkey) is 6 and 12 and 11; in series [3] (0.1 mg/Kg (iv), Day −1 (pre-dose), individual monkey), 12; in series [3] (0.1 mg/Kg (iv), Day −2 (pre-dose), individual monkey) it was 12; in series [3] (0.1 mg/Kg (sc), Day 1 (dosing day), individual monkey), 5 and 12 and 11; in series [3] (0.1 mg/Kg (sc), Day 2, individual monkey), 0 (2×) and 12; in series [3] (0.1 mg/Kg (sc), Day 3, individual monkey) it was 4 and 2 and 11. Moreover, the Biscuits consumed daily in series [3] (0.1 mg/Kg (sc), Day 4, individual monkey) is 11 and 12 (2×); in series [3] (0.1 mg/Kg (sc), Day 5, individual monkey) it was 7 and 12 and 8; in series [3] (0.1 mg/Kg (sc), Day 6, individual monkey), 11 and 12 (2×); in series [3] (0.1 mg/Kg (sc), Day 7, individual monkey), 12; in series [3] (0.1 mg/Kg (sc), Day −1 (pre-dose), individual monkey), 12; in series [3] (0.1 mg/Kg (sc), Day −2 (pre-dose), individual monkey), 12. Moreover, in series [3] (0.1 mg/Kg iv or sc, all monkeys, not powered for significance), the “food consumption in the days following dosing” value is reported as “trend towards reduction in food consumption”.
